The test system of one test is SH-SY5Y. The test can be described thus: Antioxidant activity against tert-butyl hydroperoxide-induced ROS evoked cell death in human SH-SY5Y cells. Type of test: functional, cell-based.
Another test has as its target Cholinesterase (Homo sapiens, UniProt P06276). The experiment in a line: Inhibition of human serum BChE by Ellman's method. For orientation: DTNB colorimetry detects thiols as they appear.
A further test concerns the target Acetylcholinesterase (Homo sapiens, UniProt P22303).
The target of test [1] is Glutamate NMDA receptor; GRIN1/GRIN2B (Homo sapiens, UniProt Q05586+Q13224).
Sequence of Glutamate NMDA receptor; GRIN1/GRIN2B (Q13224 whole entry, other chains not shown): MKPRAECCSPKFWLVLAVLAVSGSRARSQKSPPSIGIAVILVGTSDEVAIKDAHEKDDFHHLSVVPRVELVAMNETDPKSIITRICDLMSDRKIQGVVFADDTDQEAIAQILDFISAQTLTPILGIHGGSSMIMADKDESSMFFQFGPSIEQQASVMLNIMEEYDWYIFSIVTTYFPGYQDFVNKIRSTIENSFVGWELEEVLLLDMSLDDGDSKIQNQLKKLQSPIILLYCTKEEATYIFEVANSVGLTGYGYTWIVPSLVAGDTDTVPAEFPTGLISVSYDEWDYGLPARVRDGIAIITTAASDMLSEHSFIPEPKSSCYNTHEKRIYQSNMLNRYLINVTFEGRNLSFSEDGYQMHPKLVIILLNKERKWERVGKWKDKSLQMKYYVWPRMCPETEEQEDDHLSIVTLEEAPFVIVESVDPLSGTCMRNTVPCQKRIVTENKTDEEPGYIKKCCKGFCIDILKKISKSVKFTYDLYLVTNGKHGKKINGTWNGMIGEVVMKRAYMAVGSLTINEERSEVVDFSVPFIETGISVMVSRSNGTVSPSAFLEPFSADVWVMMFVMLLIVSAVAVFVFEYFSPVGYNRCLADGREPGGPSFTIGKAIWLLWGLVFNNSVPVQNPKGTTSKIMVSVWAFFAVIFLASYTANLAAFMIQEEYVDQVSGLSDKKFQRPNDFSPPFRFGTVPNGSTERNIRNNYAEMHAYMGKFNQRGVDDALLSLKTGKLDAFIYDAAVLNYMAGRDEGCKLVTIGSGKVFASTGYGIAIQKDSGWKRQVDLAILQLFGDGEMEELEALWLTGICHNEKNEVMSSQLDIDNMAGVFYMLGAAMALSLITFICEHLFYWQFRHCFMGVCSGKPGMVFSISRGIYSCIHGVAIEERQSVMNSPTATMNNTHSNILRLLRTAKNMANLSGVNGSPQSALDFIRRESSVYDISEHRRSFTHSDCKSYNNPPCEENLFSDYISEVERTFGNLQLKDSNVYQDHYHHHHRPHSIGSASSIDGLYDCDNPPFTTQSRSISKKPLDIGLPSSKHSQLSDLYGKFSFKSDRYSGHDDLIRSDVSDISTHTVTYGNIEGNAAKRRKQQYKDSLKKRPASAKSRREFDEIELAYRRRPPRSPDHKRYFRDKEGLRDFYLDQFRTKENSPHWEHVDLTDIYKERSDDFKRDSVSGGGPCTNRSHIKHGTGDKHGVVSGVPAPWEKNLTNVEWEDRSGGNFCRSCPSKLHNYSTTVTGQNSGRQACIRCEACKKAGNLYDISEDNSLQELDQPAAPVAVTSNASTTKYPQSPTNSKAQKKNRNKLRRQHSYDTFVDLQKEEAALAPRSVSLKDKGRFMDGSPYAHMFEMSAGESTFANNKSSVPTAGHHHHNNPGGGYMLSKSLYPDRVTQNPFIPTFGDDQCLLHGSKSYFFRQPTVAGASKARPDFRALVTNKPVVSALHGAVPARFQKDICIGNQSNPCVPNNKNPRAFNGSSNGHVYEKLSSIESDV
Description: Inhibition of NMDA NR1/NR2B receptor expressed in xenopus oocytes assessed as inhibition of NMDA and glycine-induced current response by two-electrode voltage clamp assay

As a reminder, the IC50 is the concentration that gives 50% inhibition. A low value points to greater potency in that assay.

Sequence of Acetylcholinesterase (P22303 whole entry): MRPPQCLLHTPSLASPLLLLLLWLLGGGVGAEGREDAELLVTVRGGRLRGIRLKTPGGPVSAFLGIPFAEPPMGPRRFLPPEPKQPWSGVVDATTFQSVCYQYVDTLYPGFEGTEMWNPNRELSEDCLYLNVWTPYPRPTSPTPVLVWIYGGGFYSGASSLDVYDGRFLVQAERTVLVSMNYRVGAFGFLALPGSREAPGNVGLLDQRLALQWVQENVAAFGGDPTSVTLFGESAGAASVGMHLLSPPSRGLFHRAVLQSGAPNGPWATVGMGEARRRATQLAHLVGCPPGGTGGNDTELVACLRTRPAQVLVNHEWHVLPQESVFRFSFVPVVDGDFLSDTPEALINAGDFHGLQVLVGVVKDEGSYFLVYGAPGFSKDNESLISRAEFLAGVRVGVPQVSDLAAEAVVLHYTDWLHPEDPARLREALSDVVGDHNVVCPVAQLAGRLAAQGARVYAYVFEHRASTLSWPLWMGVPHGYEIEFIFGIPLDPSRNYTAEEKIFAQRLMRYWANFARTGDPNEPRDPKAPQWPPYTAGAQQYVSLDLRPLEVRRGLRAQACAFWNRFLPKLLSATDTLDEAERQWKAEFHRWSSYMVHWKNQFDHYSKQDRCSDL
Sequence of Cholinesterase (P06276 whole entry): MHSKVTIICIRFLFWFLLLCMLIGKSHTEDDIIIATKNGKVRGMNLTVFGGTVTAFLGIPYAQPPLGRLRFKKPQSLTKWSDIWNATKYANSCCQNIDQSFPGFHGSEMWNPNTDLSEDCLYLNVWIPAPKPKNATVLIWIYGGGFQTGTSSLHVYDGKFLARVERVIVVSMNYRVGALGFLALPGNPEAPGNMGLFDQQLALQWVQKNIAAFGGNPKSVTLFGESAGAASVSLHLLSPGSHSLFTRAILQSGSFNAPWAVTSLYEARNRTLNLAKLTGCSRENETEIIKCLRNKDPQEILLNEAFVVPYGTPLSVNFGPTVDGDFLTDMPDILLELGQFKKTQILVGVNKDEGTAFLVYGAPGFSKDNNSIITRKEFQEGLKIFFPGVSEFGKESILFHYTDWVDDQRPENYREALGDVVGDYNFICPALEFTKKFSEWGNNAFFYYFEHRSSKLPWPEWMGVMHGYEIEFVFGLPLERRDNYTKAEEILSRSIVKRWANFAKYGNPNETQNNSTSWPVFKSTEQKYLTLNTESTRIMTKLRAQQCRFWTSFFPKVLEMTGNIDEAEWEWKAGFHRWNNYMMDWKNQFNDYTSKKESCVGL
Description for Acetylcholinesterase: Inhibition of human recombinant AChE by Ellman's method

As to `Oc1cccc2[nH]c3ccccc3c12`, the concentration for half-maximal inhibition (IC50) in the test with SH-SY5Y was found to be 70 nM.

Regarding `Clc1ccc2c(NCCCNCCCCCOc3cccc4[nH]c5ccccc5c34)c3c(nc2c1)CCCC3`, the IC50 on Cholinesterase was found to be 189 nM; at Acetylcholinesterase it was 1.54 nM; in test [1], 18200 nM.

Take `Clc1ccc2c(NCCCNCCCCCCOc3cccc4[nH]c5ccccc5c34)c3c(nc2c1)CCCC3`: the half-inhibitory concentration (IC50) against Cholinesterase came to 137 nM; against Acetylcholinesterase it was 2.57 nM; in test [1], 13000 nM.

As for `Clc1ccc2c(NCCCNCCCCOc3cccc4[nH]c5ccccc5c34)c3c(nc2c1)CCCC3`, the IC50 against Cholinesterase was determined as 211 nM; against Acetylcholinesterase, 1.65 nM; in test [1] it was 30300 nM.

`Clc1ccc2c(NCCCNCCCOc3cccc4[nH]c5ccccc5c34)c3c(nc2c1)CCCC3` [CARBACRINE]: the IC50 against Cholinesterase is 296 nM; in the test on SH-SY5Y, 23000 nM; at Acetylcholinesterase, 2.15 nM; in test [1] it was 740 nM.

As to `Cc1c(C)c2c(c(C)c1O)CCC(C)(C(=O)O)O2` (stereo not given) [TROLOX], the IC50 in the test with SH-SY5Y turned out to be 49600 nM.

The values above are taken from ChEMBL document CHEMBL1155822, “Inhibition of acetylcholinesterase, beta-amyloid aggregation, and NMDA receptors in Alzheimer's disease: a promising direction for the multi-target-directed ligands gold rush” (J Med Chem, 2008).
